Assay results from US11771692B2, “N-hydroxyethyl didehydroazapodophyllotoxins as GBP1 inhibitors and methods of overcoming treatment resistance in cancer” (The Board of Trustees of the Leland Stanford Junior …, priority 2018, dated 2023).
Entries after “also recorded” stand apart in the source; their conditions may differ.

Key:
OVCAR8 = experiment: MTT cytotoxicity assay, OVCAR8; type: cell-based; conditions: Homo sapiens, OVCAR-8, Ovarian
Protocol: (§1) It was observed that SU093 was highly cytotoxic for all cell lines tested with IC50 values in the nanomolar range.
(§2) Furthermore, OVCAR8 cells with overexpressed (OV) and knockdown (KD) of GBP1 gene were created (FIG. 3, panel D) and cell viability experiments were performed on GBP1-WT (wild-type), GBP1-OV and GBP1-KD OVCAR8 cells at different doses of SU093.

OVCAR8 cells [1] = experiment: Colony formation (clonogenic) assay in OVCAR8 cells; type: cell-based
HEK293 = experiment: MTT cytotoxicity assay, normal HEK293 cells; type: cell-based
From the text: (§3) FIG. 3, panels A-E. FIG. 3, panel A illustrates the effects of SU093 on survival of human normal HEK293 cell line and ovarian cancer cell lines OVCAR8 & SKOV3 cells via MTT assay. FIG. 3, panel B illustrates the effect of SU093 on GBP1 and PIM1 expression in OVCAR8 cells. […] FIG. 3, panel D illustrates quantification of overexpression and knockdown of GBP1 gene in stably transfected OVCAR8 cells. FIG. 3, panel E illustrates cytotoxicity of SU093 as evaluated in GBP1-OV, GBP1-WT and GBP1-KD OVCAR8 via MTT assay.
as §2

SKOV3 = experiment: MTT cytotoxicity assay, SKOV3; type: cell-based; conditions: Homo sapiens, SK-OV-3; SKOV3 ovarian cancer cell line
From the text: as §3, §2

SSC-90 = experiment: MTT cytotoxicity assay, SSC-90; type: cell-based; conditions: Head and Neck, SSC-90, MTT assay
From the text: as §1

SCC-90 cells [2] = experiment: Clonogenic radiosensitization assay in SCC-90 cells; type: cell-based; conditions: SCC-90, SU093 50 nM then radiation
From the text: (§4) The potential for GBP1 inhibition and radiosensitzation in head and neck cancer cells was also investigated.

GBP1 [3] = experiment: Confocal microscopy immunostaining of GBP1 and β-tubulin in OVCAR8 cells; type: cell-based; conditions: OVCAR8, 1 nM SU093 for 6 h
DU145 = experiment: MTT cytotoxicity assay, DU145; type: cell-based; conditions: Homo sapiens, DU-145, Prostate
From the text: as §1

SCC-90 tumor xenograft = experiment: Head and neck SCC-90 tumor xenograft in nude mice; type: in vivo; conditions: SCC-90, nude mice
Protocol: An immunodeficient nude mice model was also used to study the in vivo potential of SU093 and SU056 for head and neck cancer. Nude mice (n=3/group) were subcutaneously injected in the right flank with 5×10^6 SCC-90 cells mixed with matrigel and observed regularly until the tumor size reached about 200 mm^3. The treatment regime with drugs including dose, formulation and route of delivery was similar to ovarian cancer study discussed above. Doses of SU093 and SU056 were administered daily until 35 days and mice were sacrificed thereafter. […] At the end of 35 days, calculated tumor volume/mouse was 860.33±21.78 mm^3, 694.67±14.64 mm^3, and 435.00±10.81 mm^3 for control, SU093 and SU056 treatment groups, respectively. This equates to a 20% and 50% reduction in tumor volume for SU093 and SU056 treatment groups, respectively. A decrease in tumor weight of about 21% (P value not significant) and 54% (P<0.002) was also observed for the SU093 and SU56 treatment groups, respectively.

GBP1 [4] = experiment: Confocal microscopy of GBP1 and β-tubulin in SCC-90 cells; type: cell-based; conditions: SCC-90, SU093 50 nM, 6 h
From the text: as §4

OVCAR8 cells [5] = experiment: Cell cycle analysis and cell cycle/cell death regulators in OVCAR8 cells; type: cell-based
From the text: FIG. 4, panel A illustrates a histogram of cell cycle distribution of propidium iodide (PI)-stained cells. […] FIG. 4, panel C illustrates the effect of SU093 on cell cycle and cell death regulators analyzed by immunostaining. FIG. 4, panel D illustrates mitochondria stained with MitoTracker Red CMXRos and visualized by confocal microscopy indicating mitochondrial dysfunction in OVCAR8 cells. FIG. 4, panel E illustrates the effect of SU093 on active mitochondrial mass in OVCAR8 cells.
as §2
It has been previously established that GBP1 expression has a definitive role in the resistance towards radiation therapy and taxane-based chemotherapy. The GBP1 inhibitor SU093 was tested in combination with radiation and paclitaxel (a well known taxane-based chemotherapeutic drug) for its potential in overcoming radiation therapy and taxane resistance. […] A cell cycle analysis experiment for radiation was performed with SU093 and combination treatment (FIG. 5, panel B). […] One of the mechanisms through which a drug can sensitize the effect of radiation is its ability to block G2/M phase of the cell cycle (Leonard, C. E.; Chan, D. C.; Chou, T. C.; Kumar, R.; Bunn, P. A., Paclitaxel enhances in vitro radiosensitivity of squamous carcinoma cell lines of the head and neck. Cancer Research 1996, 56 (22), 5198-5204). […]

MCF7 = experiment: MTT cytotoxicity assay, MCF7; type: cell-based; conditions: Homo sapiens, Breast
From the text: as §1

SCC-90 cells [6] = experiment: MTT cell viability in SCC-90 cells with GBP1 overexpression and knockdown; type: cell-based; conditions: SCC-90, SU093 0.5-1000 nM, 48 h
From the text: as §4

B2M = B2M expression in SCC-90 cells; type: cell-based; conditions: SCC-90 cells treated with SU093
From the text: Down-regulation of Major Histocompatibility Complex class I molecules (MHC-I) expression is a widespread phenomenon used by tumor cells to escape antitumor T-cell-mediated immune responses. Reduction in B2-microglobulin (B2M, a molecule associated with MHC-I) helps cancer cells to hide them from immune system (Hicklin, D. J.; Marincola, F. M.; Ferrone, S., HLA class I antigen downregulation in human cancers: T-cell immunotherapy revives an old story. Molecular Medicine Today 1999, S (4), 178-186.) In experiments conducted herein, reduced expression B2M in GBP1-OV cells was observed (FIG. 1, panel F).

A549 = experiment: MTT cytotoxicity assay, A549; type: cell-based; conditions: Homo sapiens, Lung
From the text: as §1

Compound: COc1ccc2c(c1)N(CCO)C1=C(C(=O)OC1)C2c1ccccc1 (stereo not shown) [SU093]
- IC50 (OVCAR8): 2.49 nM
- colony formation / clonogenic potential (OVCAR8 cells [1]): dose-dependent inhibition of clonogenic potential; also recorded: dose-dependent inhibition of colony formation
- cytotoxicity for normal cell line (HEK293): no cytotoxicity
- IC50 (SKOV3): 2.68 nM
- IC50 (SSC-90): 3.23 nM
- radiation sensitizing effect, clonogenic assay (SCC-90 cells [2]): radiosensitization effect; also recorded: significant radiation sensitizing effect
- GBP1 nuclear translocation and tubulin expression (GBP1 [3]): inhibits the nuclear translocation of GBP1 protein and reduces the tubulin expression; also recorded: blocking its nuclear translocation and reducing tubulin expression
- IC50 (DU145): 1.12 nM
- tumor volume/mouse (SCC-90 tumor xenograft; 20 mg/kg IP daily, end of 35 days): 694.67±14.64 mm^3
- decrease in tumor weight (SCC-90 tumor xenograft; 35 days, vs control): about 21%
- reduction in tumor volume (SCC-90 tumor xenograft; 35 days, vs control): 20%
- GBP1 nuclear translocation and β-tubulin expression (GBP1 [4]): inhibits the nuclear translocation of GBP1 protein and reduces the tubulin expression; also recorded: blocking its nuclear translocation and reducing β-tubulin expression
- cell cycle distribution (OVCAR8 cells [5]; OVCAR8, SU093 alone): G1 phase arrest; also recorded: progression from G1 to S phase was markedly inhibited
- cell cycle distribution, combination of SU093 and radiation (OVCAR8 cells [5]; OVCAR8, combination with radiation): G2/M phase arrest leading to apoptosis; also recorded: G2/M phase arrest leading to apoptotic cell death
- cell cycle and cell death regulators (OVCAR8 cells [5]; OVCAR8, cyclin D1, CDK2, Bax): reduction in cyclin D1 and CDK2 levels and elevation of the cell death regulator Bax
- IC50 (MCF7): 6.23 nM
- cytotoxic effect in GBP1 OV and KD cells (SCC-90 cells [6]): GBP1 dependent cytotoxic effect
- B2M expression (B2M): induced expression of B2M
- IC50 (A549): 2.48 nM
